Measured values: patent publication US8207127B2, “Compounds for enzyme inhibition” (Onyx Technologies, Inc., priority 2004, dated 2012)
pIC50: −log10 of the molar value.

Tests used:
[1] = biological target: 20S proteasome chymotrypsin-like activity (CT-L) (Homo sapiens, UniProt P20618+P28074); test: 20S proteasome chymotrypsin-like (CT-L) activity inhibition; format: biochemical; details: chymotrypsin-like activity of 20S proteasome
Protocol: The enzyme inhibitor analogs and prodrugs disclosed herein are useful in part because they inhibit the action of the 20S proteasome. […] That is, the instant compounds show selectivities for the 20S proteasome over other proteases such as cathepsins, calpains, papain, chymotrypsin, trypsin, tripeptidyl pepsidase II. The selectivities of the enzyme inhibitors for 20S proteasome are such that at concentrations below about 50 μM, the enzyme inhibitors show inhibition of the catalytic activity of the 20S proteasome, while not showing inhibition of the catalytic activity of other proteases such as cathepsins, calpains, papain, chymotrypsin, trypsin, tripeptidyl pepsidase II. In preferred embodiments, the enzyme inhibitors show inhibition of the catalytic activity of the 20S proteasome at concentrations below about 10 μM, while not showing inhibition of the catalytic activity of other proteases at these concentrations. In even more preferred embodiments, the enzyme inhibitors show inhibition of the catalytic activity of the 20S proteasome at concentrations below about 1 μM, while not showing inhibition of the catalytic activity of other proteases at these concentrations. Enzyme kinetic assays are disclosed in U.S. application Ser. No. 09/569,748, Example 2 and Stein et al., Biochem. (1996), 35, 3899-3908.
The chymotrypsin-like activity of 20S proteasome is characterized by cleavage of peptides in the immediate vicinity of large hydrophobic residues. In particular, the chymotrypsin-like activity of Ntn hydrolases can be determined by cleavage of a standard substrate. Examples of such substrates are known in the art. For example, a leucylleucylvalinyltyrosine derivative can be used. Enzyme kinetic assays are disclosed in U.S. application Ser. No. 09/569,748, Example 2 and Stein et al., Biochem. (1996), 35, 3899-3908.

[2] = biological target: T1, proteasome chymotrypsin-like activity (CT-L) (Homo sapiens, UniProt P28074); test: Cell-based CT-L proteasome activity inhibition
T1 construct: endogenous in cells
T1 sequence (P28074 60-263): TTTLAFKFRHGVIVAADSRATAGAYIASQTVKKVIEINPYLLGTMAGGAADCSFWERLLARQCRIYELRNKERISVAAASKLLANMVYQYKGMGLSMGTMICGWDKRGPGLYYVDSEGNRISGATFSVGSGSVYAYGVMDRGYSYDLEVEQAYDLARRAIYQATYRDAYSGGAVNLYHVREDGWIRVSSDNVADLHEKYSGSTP

| SMILES | pIC50 [1] | pIC50 [2] |
| --- | --- | --- |
| CC(C)C[C@H](NC(=O)[C@H](CCc1ccccc1)NC(=O)CCCN(C)C)C(=O)N[C@@H](Cc1ccccc1)C(=O)N[C@@H](CC(C)C)C(=O)[C@@]1(C)CO1 [Compound 7] | > 7.30 | > 6.82 |
| Cc1nn(C)c(C)c1S(=O)(=O)N[C@@H](CCc1ccccc1)C(=O)N[C@@H](CC(C)C)C(=O)N[C@@H](Cc1ccccc1)C(=O)N[C@@H](CC(C)C)C(=O)[C@@]1(C)CO1 [Compound 8] | > 7.00 | > 7.00 |
| CC(C)C[C@H](NC(=O)[C@H](CCc1ccccc1)NC(=O)CN1CCCCC1)C(=O)N[C@@H](Cc1ccccc1)C(=O)N[C@@H](CC(C)C)C(=O)[C@@]1(C)CO1 [Compound 4] | > 7.00 | > 7.00 |
| CC(C)C[C@H](NC(=O)[C@H](CCc1ccccc1)NC(=O)CO)C(=O)N[C@@H](Cc1ccccc1)C(=O)N[C@@H](CC(C)C)C(=O)[C@@]1(C)CO1 [Compound 1] | > 7.30 | > 7.00 |
